Test results as given in the supplement of paper PMC10307832.

Tests used:
Assay in all cases: relative viability (nuclei count vs DMSO), 5 days (fraction); higher = more cells survive
[1] = compound: CC(C)CCN1c2nc(Nc3cc(F)c(O)c(F)c3)ncc2N(C)C(=O)C1C [BI-D1870] + COc1cc2c(Oc3ccc(NC(=O)C4(C(=O)Nc5ccc(F)cc5)CC4)cc3F)ccnc2cc1OCCCN1CCOCC1 [Foretinib] (partner 0.25 µM)
In short: (§1)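 Relative viability equals treated-well nuclei counts divided by vehicle-well nuclei counts. Counts came from 4× images of lung cancer cell lines grown in 1536-well plates for 5 days after pin-tool dosing on the day after seeding. Dosing used one drug alone or a fixed anchor-drug dose plus five library-drug doses (not always all listed) in √10 steps, and values are medians of duplicate plates.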

[2] = compound: CC(C)CCN1c2nc(Nc3cc(F)c(O)c(F)c3)ncc2N(C)C(=O)C1C [BI-D1870] + Nc1ncn([C@H]2C[C@H](O)[C@@H](CO)O2)c(=O)n1 [Decitabine] (partner 2 µM)
In short: as §1

[3] = compound: O=c1ncccn1[C@@H]1O[C@H](CO)[C@@H](O)[C@H]1O [Zebularine] + CC1(C)CCC(c2ccc(Cl)cc2)=C(CN2CCN(c3ccc(C(=O)NS(=O)(=O)c4ccc(N[C@H](CCN5CCOCC5)CSc5ccccc5)c(S(=O)(=O)C(F)(F)F)c4)cc3)CC2)C1 [Navitoclax] (partner 0.5 µM)
In short: as §1

[4] = compound: O=c1ncccn1[C@@H]1O[C@H](CO)[C@@H](O)[C@H]1O [Zebularine] + Nc1ncn([C@H]2C[C@H](O)[C@@H](CO)O2)c(=O)n1 [Decitabine] (partner 2 µM)
In short: as §1

Cell Line	relative viability ([1]; first compound 0.04 µM)	relative viability ([1]; first compound 0.1265 µM)	relative viability ([1]; first compound 0.4 µM)	relative viability ([1]; first compound 1.265 µM)	relative viability ([1]; first compound 4 µM)	relative viability ([2]; first compound 0.04 µM)	relative viability ([2]; first compound 0.1265 µM)	relative viability ([2]; first compound 0.4 µM)	relative viability ([2]; first compound 1.265 µM)	relative viability ([2]; first compound 4 µM)	relative viability ([3]; first compound 1 µM)	relative viability ([3]; first compound 3.162 µM)	relative viability ([3]; first compound 10 µM)	relative viability ([3]; first compound 31.62 µM)	relative viability ([3]; first compound 100 µM)	relative viability ([4]; first compound 1 µM)	relative viability ([4]; first compound 3.162 µM)	relative viability ([4]; first compound 10 µM)	relative viability ([4]; first compound 31.62 µM)	relative viability ([4]; first compound 100 µM)
201T	1.22	1.02	1	1.29	1.05	0.886	0.849	0.847	0.848	0.879	1.21	1.21	0.981	1.19	1.18	0.872	0.883	0.76	0.894	0.844
A549	1.08	0.958	1.01	0.963	0.747	0.213	0.282	0.27	0.288	0.236	1.24	1.12	–	0.913	0.206	0.219	0.251	–	0.267	0.185
A-427	1.14	0.895	0.991	1.11	1.13	0.573	0.499	0.561	0.685	0.638	0.974	0.932	0.563	0.483	0.205	0.693	0.534	0.524	0.455	0.302
ABC-1	1.16	0.984	1.1	1.42	0.913	0.885	1.05	1.15	0.942	1.03	–	–	–	–	–	1.13	0.68	0.888	0.577	0.495
BEN	0.654	0.609	0.76	1.16	0.77	0.748	0.617	0.733	0.738	0.844	0.0641	0.0628	0.162	0.0748	0.0383	0.821	0.686	0.545	0.495	0.371
CAL-12T	1.29	0.831	1.11	1.23	0.889	–	–	–	–	–	1.53	1.32	–	1.28	0.918	–	–	–	–	–
COR-L23	1.01	0.894	0.938	1.01	0.905	0.445	0.402	0.508	0.526	0.405	1.02	1.15	0.323	0.558	0.218	0.407	0.368	0.408	0.363	0.202
COR-L 105	1.29	1.12	1.1	1.47	1.12	0.668	0.516	0.668	0.733	0.656	0.642	0.738	0.674	0.768	0.747	0.642	0.696	0.523	0.648	0.647
Calu-6	0.929	0.789	0.87	0.774	0.561	–	–	–	–	–	1.03	0.825	0.649	0.647	0.225	–	–	–	–	–
ChaGo-K-1	1.01	0.85	0.857	1.04	0.956	0.527	0.468	0.506	0.519	0.511	1.18	0.891	0.562	0.538	0.292	0.534	0.566	0.432	0.232	0.199
EBC-1	0.103	0.119	0.105	0.136	0.0927	–	–	–	–	–	0.398	0.353	0.376	0.337	0.37	–	–	–	–	–
EKVX	1.3	0.593	0.619	0.935	0.371	0.328	0.309	0.374	0.436	0.39	1.03	0.755	–	0.947	1.03	0.576	0.378	–	0.304	0.339
EMC-BAC-2	1.07	0.875	0.918	1.09	1.02	1.02	0.985	1.01	1.27	1.02	1.35	1.15	0.683	1.28	1.3	1.03	1	0.772	1.03	1.01
EPLC-272H	0.786	0.539	0.602	0.612	0.508	0.372	0.346	0.417	0.359	0.372	1.45	–	–	1.26	0.639	0.404	–	0.398	0.364	0.371
H3255	0.784	0.915	0.953	1.09	0.849	0.633	0.643	0.571	0.749	0.648	0.627	0.453	–	0.36	0.409	0.687	0.615	–	0.65	0.665
HARA	0.872	0.855	0.867	0.819	1.02	0.513	0.527	0.568	0.683	0.684	1.14	1.13	–	1.1	0.718	0.595	0.603	0.433	0.554	0.459
HCC-15	1.11	0.911	1	0.921	0.599	0.674	0.623	0.627	0.72	0.465	0.775	0.72	0.507	0.781	0.469	0.683	0.575	0.36	0.684	0.487
HCC-44	–	–	–	–	–	0.987	0.973	0.96	1.03	1.04	0.965	0.943	0.669	0.973	0.248	0.981	0.929	0.946	1.03	0.585
